According to ChEMBL document CHEMBL1129479, “Structure-activity relationships of a new family of steroidal aromatase inhibitors. 1. Synthesis and evaluation of a series of analogs related to 19-[(methylthio)methyl]androstenedione (RU54115)” (J Med Chem, 1996):

Key:
Aromatase [1] = biological target: Aromatase (Homo sapiens, UniProt P11511); experiment: In vitro inhibition to cytochrome P450 19A1 assayed using human placental microsomes; set-up: species or system Placenta
Aromatase [2] = biological target: T1, Aromatase (Rattus norvegicus, UniProt P22443); experiment: In vivo reduction in serum estradiol in PMSG-primed rats after 2 hr at 5 mg/kg oral dose; type: functional, organism-based; set-up: dose 5 mg/kg, route oral; scale not given: the % may be the effect or the level left
T1 sequence (P22443 whole entry): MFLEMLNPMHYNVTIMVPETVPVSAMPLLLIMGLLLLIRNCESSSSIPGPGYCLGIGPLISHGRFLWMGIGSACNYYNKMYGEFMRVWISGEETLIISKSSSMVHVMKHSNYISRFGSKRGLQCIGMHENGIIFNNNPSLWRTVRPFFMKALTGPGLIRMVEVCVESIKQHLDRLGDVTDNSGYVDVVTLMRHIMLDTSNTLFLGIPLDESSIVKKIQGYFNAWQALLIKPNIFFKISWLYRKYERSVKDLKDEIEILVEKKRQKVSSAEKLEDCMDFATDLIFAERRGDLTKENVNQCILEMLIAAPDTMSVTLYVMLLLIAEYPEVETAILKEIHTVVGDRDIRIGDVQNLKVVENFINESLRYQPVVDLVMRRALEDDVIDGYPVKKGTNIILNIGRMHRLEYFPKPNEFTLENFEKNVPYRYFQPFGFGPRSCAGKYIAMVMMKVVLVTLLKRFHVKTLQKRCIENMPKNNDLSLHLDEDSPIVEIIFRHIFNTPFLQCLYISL

Aromatase [3] = biological target: T1, Aromatase; experiment: In vivo reduction in serum estradiol in PMSG-primed rats after 6 hr at 5 mg/kg oral dose; type: functional, organism-based; set-up: dose 5 mg/kg, route oral; scale not given: the % may be the effect or the level left

## C=CSCC[C@]12CCC(=O)C=C1CCC1C2=CC[C@]2(C)C(=O)CCC12 (stereo partly drawn)
Aromatase [1]
  IC50: 50 nM
Aromatase [2]
  Control: 25%
Aromatase [3]
  Control: 24%

## C[C@]12CC=C3C(CCC4=CC(=O)CC[C@@]43CC[Se]c3ccccc3)C1CCC2=O (stereo partly drawn)
Aromatase [1]
  IC50: > 1000 nM

## CSC(=O)C[C@]12CCC(=O)C=C1CCC1C2CC[C@]2(C)C(=O)CCC12 (stereo partly drawn)
Aromatase [1]
  IC50: 42 nM
Aromatase [2]
  Control: 37%
Aromatase [3]
  Control: 49%

## C[C@]12CC=C3C(CCC4=CC(=O)CC[C@@]43CCSCF)C1CCC2=O (stereo partly drawn)
Aromatase [1]
  IC50: 50 nM
Aromatase [2]
  Control: 31%
Aromatase [3]
  Control: 41%

## CCSCC[C@]12CCC(=O)C=C1CCC1C2=CC[C@]2(C)C(=O)CCC12 (stereo partly drawn)
Aromatase [1]
  IC50: 870 nM

## C[C@]12CC=C3C(CCC4=CC(=O)CC[C@@]43CCSCCS)C1CCC2=O (stereo partly drawn)
Aromatase [1]
  IC50: > 1000 nM

## CS[C@]12CCC(=O)C=C1CCC1C2=CC[C@]2(C)C(=O)CCC12 (stereo partly drawn)
Aromatase [1]
  IC50: 7400 nM

## C[C@]12CC=C3C(CCC4=CC(=O)CC[C@@]43CCSSc3ccc([N+](=O)[O-])cc3[N+](=O)[O-])C1CCC2=O (stereo partly drawn)
Aromatase [1]
  IC50: > 1000 nM
Aromatase [2]
  Control: 27%
Aromatase [3]
  Control: 32%

## COCC[C@]12CCC(=O)C=C1CCC1C2=CC[C@]2(C)C(=O)CCC12 (stereo partly drawn)
Aromatase [1]
  IC50: 10000 nM

## CN(C)CC[C@]12CCC(=O)C=C1CCC1C2=CC[C@]2(C)C(=O)CCC12 (stereo partly drawn)
Aromatase [1]
  IC50: > 10000 nM

## C[C@]12CC=C3C(CCC4=CC(=O)CC[C@@]43CCSC#N)C1CCC2=O (stereo partly drawn)
Aromatase [1]
  IC50: > 1000 nM
Aromatase [2]
  Control: 44%
Aromatase [3]
  Control: 38%

## C[C@]12CC=C3C(CCC4=CC(=O)CC[C@@]43CCI)C1CCC2=O (stereo partly drawn)
Aromatase [1]
  IC50: > 10000 nM

## C[C@]12CC=C3C(CCC4=CC(=O)CC[C@@]43CCSC3CC3)C1CCC2=O (stereo partly drawn)
Aromatase [1]
  IC50: > 1000 nM

## C[C@]12CC=C3C(CCC4=CC(=O)CC[C@@]43CCSC(F)F)C1CCC2=O (stereo partly drawn)
Aromatase [1]
  IC50: > 1000 nM

## CCSC(C[C@]12CCC(=O)C=C1CCC1C2=CC[C@]2(C)C(=O)CCC12)SCC (stereo partly drawn)
Aromatase [1]
  IC50: > 1000 nM

## CSCC[C@]12CCC(=O)C=C1CCC1C2=CC[C@]2(C)C(=O)CCC12 (stereo partly drawn)
Aromatase [1]
  IC50: 12 nM
Aromatase [2]
  Control: 51%
Aromatase [3]
  Control: 50%

## C[C@]12CC=C3C(CCC4=CC(=O)CC[C@@]43CCSSc3ccccc3)C1CCC2=O (stereo partly drawn)
Aromatase [1]
  IC50: > 1000 nM
Aromatase [2]
  Control: 43%
Aromatase [3]
  Control: 62%

## CC(=O)SCC[C@]12CCC(=O)C=C1CCC1C2=CC[C@]2(C)C(=O)CCC12 (stereo partly drawn)
Aromatase [1]
  IC50: > 10000 nM
Aromatase [2]
  Control: 21%
Aromatase [3]
  Control: 10%

## C[C@]12CC=C3C(CCC4=CC(=O)CC[C@@]43CCSc3ccccc3)C1CCC2=O (stereo partly drawn)
Aromatase [1]
  IC50: 400 nM

## CSCC[C@]12CCC(=O)C=C1CCC1C2CC[C@]2(C)C(=O)CCC12 (stereo partly drawn)
Aromatase [1]
  IC50: 22 nM
Aromatase [2]
  Control: 11%
Aromatase [3]
  Control: 16%

## C#CSCC[C@]12CCC(=O)C=C1CCC1C2=CC[C@]2(C)C(=O)CCC12 (stereo partly drawn)
Aromatase [1]
  IC50: 330 nM

## CSC(C[C@]12CCC(=O)C=C1CCC1C2=CC[C@]2(C)C(=O)CCC12)SC (stereo partly drawn)
Aromatase [1]
  IC50: > 1000 nM
Aromatase [2]
  Control: 18%
Aromatase [3]
  Control: 13%

## C=CCSCC[C@]12CCC(=O)C=C1CCC1C2=CC[C@]2(C)C(=O)CCC12 (stereo partly drawn)
Aromatase [1]
  IC50: 270 nM

## CSSCC[C@]12CCC(=O)C=C1CCC1C2=CC[C@]2(C)C(=O)CCC12 (stereo partly drawn)
Aromatase [1]
  IC50: > 1000 nM
Aromatase [2]
  Control: 7%
Aromatase [3]
  Control: 23%

## CSCSCC[C@]12CCC(=O)C=C1CCC1C2=CC[C@]2(C)C(=O)CCC12 (stereo partly drawn)
Aromatase [1]
  IC50: 570 nM

## C[C@]12CC=C3C(CCC4=CC(=O)CC[C@@]43CCSCCO)C1CCC2=O (stereo partly drawn)
Aromatase [1]
  IC50: > 1000 nM

## C#CCSCC[C@]12CCC(=O)C=C1CCC1C2=CC[C@]2(C)C(=O)CCC12 (stereo partly drawn)
Aromatase [1]
  IC50: 1000 nM
Aromatase [2]
  Control: 5%
Aromatase [3]
  Control: 25%

## C[C@]12CC=C3C(CCC4=CC(=O)CC[C@@]43CCOS(C)(=O)=O)C1CCC2=O (stereo partly drawn)
Aromatase [1]
  IC50: > 10000 nM

## CSCCCC12CCC(=O)C=C1CCC1C2=CC[C@]2(C)C(=O)CCC12 (single isomer, unassigned)
Aromatase [1]
  IC50: > 10000 nM
